Patent US20250032454A1, “KDM1A INHIBITORS FOR THE TREATMENT OF DISEASE” (Imago Biosciences, Inc., priority 2021, published 2025)
pIC50: −log10 of the molar value. Where two headings read alike, the source gives them in different places.

Legend:
MV4;11 cells = assay: Cell Titer-Glo cell growth inhibition in MV4;11 cell line (Day 5 / Day 10); format: cell-based
Description: Cell growth inhibition against MV4;11 cells was confirmed for the synthetic compounds. The Cell Titer-Glo Luminescent Cell Viability Assay (Promega, USA) was used to determine the number of viable cells in culture based on quantitation of the ATP present, which signals the presence of metabolically active cells. This assay was run in a 96-well plate format arrayed in a 10-point dose curve, ranging from 0 to 50 µM with 4-fold dilutions for each compound. Cells are seeded on Day 0 at 3750 cells per well. At Day 5, a portion of each well is assayed for viability according to the Cell Titer-Glo protocol. Briefly, cells/plates were centrifuged at 1100×g for 5 minutes. 100 μL of media was removed from each well and replaced with 100 μL of CellTiter-Glo. The plates were shaken at room temperature for 10 minutes and measured on a luminescence plate reader. Another portion of each well from the Day 5 plate is used to seed a new 96 plate containing fresh compound and media set up in the equivalent 10-point dose curve array in order to continue the cell growth inhibition assay for another 5 days. A final timepoint is collected at Day 10 using the Cell Titer-Glo protocol. Luminescence was detected on an En Vision® Multilabel Plate Reader (Perkin Elmer, Waltham, Mass.) and IC50 determination was made using Graph Pad Prism software.

LSD1 = LSD1 (Homo sapiens, UniProt O60341); assay: LSD1 fluorescence coupling enzyme assay (HRP/Amplex Red, H3(1-21)K4me2 peptide), 10-dose IC50; format: biochemical; details: 10 μM histone H3(1-21)K4me2 peptide substrate, 3-fold serial dilution from 100 μM
Excerpt: Assaying the inhibition of KDM1A can be determined in vitro, in cultured cells, and in animals. There are a variety of spectrophotometric methods to detect the results of demethylation of methylated lysines, viz., detecting the products of KDM1A demethylase oxidative activity on a peptide fragment of at least 18 amino acids representing the N-terminus of the histone H3 substrate that contains a monomethyl at the fourth lysine residue. Hydrogen peroxide, one product of the KDM1A demethylase reaction, reacts with horseradish peroxidase and dihydroxyphenoxazine (ADHP) to produce the fluorescent compound resorufin (excitation=530-560 nm: emission=590 nm). The KDM1A demethylase enzyme activity can be obtained from mammalian cells or tissues expressing KDM1A from an endogenous or recombinant gene and purified or assayed from a whole cell extract. These methods can be used to determine the concentration of the disclosed compounds can inhibit fifty percent of the enzyme activity (IC50).
Alternatively, the production of H2O2 during the KDM1A reaction can be detected fluometrically. In this system, the production of H2O2 is detected in the HDM assay buffer after exposure to substrate, co-factor and enzyme using ADHP (10-Acetyl-3, 7-dihydroxyphenoxazine) as a fluorogenic substrate for horse radish peroxidase (HRP). […] The florescent product is resorufin. Sensitivity can be as low as 10-15 M of target protein. The signal is read using a fluorescence microplate reader at excitation and emission wavelengths of 530-560 nm and 590 nm, respectively.
Compounds were tested in a 10-dose IC50 mode fluorescence coupling enzyme assay with 3-fold serial dilution in duplicate starting at 100 μM. The production of FAD-dependent H2O2 as a result of demethylase activity of LSD1 on 10 μM histone H3(1-21)K4me2 peptide substrate was measured by coupling with HRP and Amplex Red to yield resorufin (fluorescence measured at Ex/Em=535/590 nm on EnVision, Perkin Elmer).

[1] = Day 5, read-out: Cell Titer-Glo IC50 (5 d)
[2] = Homo sapiens, MV4-11, 120 h, Day 5, read-out: Cell Titer-Glo IC50 (5 d)
[3] = Homo sapiens, MV4-11, 240 h, Day 10, read-out: Cell Titer-Glo IC50 (10 d)

pIC50 (MV4;11 cells; [1])	pIC50 (LSD1)	pIC50 (MV4;11 cells; [2])	pIC50 (MV4;11 cells; [3])	pIC50 (MV4;11 cells; Day 10, read-out: Cell Titer-Glo IC50 (10 d))	Compound	pIC50 (MV4;11 cells; Homo sapiens, 120 h, Day 5, read-out: Cell Titer-Glo IC50 (5 d))	pIC50 (MV4;11 cells; Homo sapiens, 240 h, Day 10, read-out: Cell Titer-Glo IC50 (10 d))
5.00 to 6.00	> 6.30				(R)-4-(3-(3-aminopiperidin-1-yl)-1-(p-tolyl)-1H-pyrazol-5-yl)-2-fluorobenzonitrile/(R)-4-(5-(3-aminopiperidin-1-yl)-1-(p-tolyl)-1H-pyrazol-3-yl)-2-fluorobenzonitrile [Example 38]		
	> 6.30	> 6.30			Cn1ncc2cc(-n3nc(NCC4CCCC(N)C4)cc3-c3ccc(C#N)c(F)c3)ccc21 (racemic) [Example 7, rac-4-(3-(((3-aminocyclohexyl)methyl)amino)-1-(1-methyl-1H-indazol-5-yl)-1H-pyrazol-5-yl)-2-fluorobenzonitrile]		
5.00 to 6.00	> 6.30				4-(3-(4-aminopiperidin-1-yl)-1-(p-tolyl)-1H-pyrazol-5-yl)-2-fluorobenzonitrile/4-(5-(4-aminopiperidin-1-yl)-1-(p-tolyl)-1H-pyrazol-3-yl)-2-fluorobenzonitrile [Example 34]		
	6.00 to 6.30	5.00 to 6.00	> 6.30		COc1ccc(-n2nc(NCC3CC3N)cc2-c2ccc(C#N)c(F)c2)cc1 (single isomer, unassigned) [Example 29a, 4-(3-(((2-aminocyclopropyl)methyl)amino)-1-(4-methoxyphenyl)-1H-pyrazol-5-yl)-2-fluorobenzonitrile]		
	> 6.30	6.00 to 6.30	> 6.30		Cn1cc(-c2cccc(-n3nc(NC[C@H]4CCC[C@H](N)C4)cc3-c3ccc(C#N)c(F)c3)c2)cn1 [Example 55, 4-(3-((((1S,3S)-3-aminocyclohexyl)methyl)amino)-1-(3-(1-methyl-1H-pyrazol-4-yl)phenyl)-1H-pyrazol-5-yl)-2-fluorobenzonitrile]		
	> 6.30	> 6.30	> 6.30		N#Cc1ccc(-c2cc(NC[C@H]3CCC[C@H](N)C3)nn2-c2ccc(N3CCS(=O)(=O)CC3)cc2)cc1F [Example 50, 4-(3-((((1S,3S)-3-aminocyclohexyl)methyl)amino)-1-(4-(1,1-dioxidothiomorpholino)phenyl)-1H-pyrazol-5-yl)-2-fluorobenzonitrile]		
	> 6.30	5.00 to 6.00	> 6.30		Cn1cc2cc(-n3nc(NC[C@@H]4CCC[C@@H](N)C4)cc3-c3ccc(C#N)c(F)c3)ccc2n1 [Example 13RR, 4-(3-((((1R,3R)-3-aminocyclohexyl)methyl)amino)-1-(2-methyl-2H-indazol-5-yl)-1H-pyrazol-5-yl)-2-fluorobenzonitrile]		
5.00 to 6.00	> 6.30			> 6.30	COc1ccc(-n2nc(NCC3CC3N)cc2-c2ccc(C#N)c(F)c2)cc1 (single isomer, unassigned) [Example 29b, 4-(3-(((2-aminocyclopropyl)methyl)amino)-1-(4-methoxyphenyl)-1H-pyrazol-5-yl)-2-fluorobenzonitrile]		
	> 6.30	5.00 to 6.00			COc1ccc(-n2nc(NCC3CC[C@@H](N)C3)cc2-c2ccc(C#N)c(F)c2)cc1 (mixture of isomers) [Example 4, rac-4-(3-((((1S,3R)-3-aminocyclopentyl)methyl)amino)-1-(4-methoxyphenyl)-1H-pyrazol-5-yl)-2-fluorobenzonitrile]		
	5.00 to 6.00	6.00 to 6.30	> 6.30		CN1CCN(c2cccc(-n3nc(NC[C@H]4CCC[C@H](N)C4)cc3-c3ccc(C#N)c(F)c3)c2)CC1 [Example 45, 4-(3-((((1S,3S)-3-aminocyclohexyl)methyl)amino)-1-(3-(4-methylpiperazin-1-yl)phenyl)-1H-pyrazol-5-yl)-2-fluorobenzonitrile]		
	> 6.30	> 6.30	> 6.30		N#Cc1ccc(-c2cc(NC[C@H]3CCC[C@H](N)C3)nn2-c2ccc(-c3cnn(CCO)c3)cc2)cc1F [Example 56, 4-(3-((((1S,3S)-3-aminocyclohexyl)methyl)amino)-1-(4-(1-(2-hydroxyethyl)-1H-pyrazol-4-yl)phenyl)-1H-pyrazol-5-yl)-2-fluorobenzonitrile]		
	> 6.30	> 6.30	> 6.30		COc1ccc(-n2nc(NCC3CCCNCC3)cc2-c2ccc(C#N)c(F)c2)cc1 (single isomer, unassigned) [Example 22a, 4-(3-((azepan-4-ylmethyl)amino)-1-(4-methoxyphenyl)-1H-pyrazol-5-yl)-2-fluorobenzonitrile]		
	> 6.30	> 6.30	> 6.30		COc1ccc(-n2nc(NC[C@H]3C[C@@H](N)C3)cc2-c2ccc(C#N)c(F)c2)cc1 [Example 41, 4-(3-((((1s,3s)-3-aminocyclobutyl)methyl)amino)-1-(4-methoxyphenyl)-1H-pyrazol-5-yl)-2-fluorobenzonitrile]		
	5.00 to 6.00	5.00 to 6.00	> 6.30		N#Cc1ccc(-c2cc(NC[C@@H]3CCC[C@@H](N)C3)nn2-c2ccc(C(=O)N3CCCC3)cc2)cc1F [Example 64, 4-(3-((((1R,3R)-3-aminocyclohexyl)methyl)amino)-1-(4-(pyrrolidine-1-carbonyl)phenyl)-1H-pyrazol-5-yl)-2-fluorobenzonitrile]		
	6.00 to 6.30	5.00 to 6.00	> 6.30		Cc1ccc(-n2nc(NC[C@@H]3CCC[C@@H](N)C3)cc2-c2ccc(C#N)c(F)c2)cc1 [Example 12RR, 4-(3-((((1R,3R)-3-aminocyclohexyl)methyl)amino)-1-(p-tolyl)-1H-pyrazol-5-yl)-2-fluorobenzonitrile]		
	5.00 to 6.00	5.00 to 6.00	> 6.30		Cn1nnc2ccc(-n3nc(NC[C@H]4CCC[C@H](N)C4)cc3-c3ccc(C#N)c(F)c3)cc21 [Example 74, 4-(3-((((15,3S)-3-aminocyclohexyl)methyl)amino)-1-(1-methyl-1H-benzo[d][1,2,3]triazol-6-yl)-1H-pyrazol-5-yl)-2-fluorobenzonitrile]		
	> 6.30	6.00 to 6.30			COc1ccc(-n2nc(NC[C@@H]3CC[C@H](N)C3)cc2-c2ccc(C#N)c(F)c2)cc1 (single isomer, unassigned) [Example 4b]		
	5.00 to 6.00	6.00 to 6.30	> 6.30		CC(C)n1cc2cc(-n3nc(NC[C@@H]4CCC[C@@H](N)C4)cc3-c3ccc(C#N)c(F)c3)ccc2n1 [Example 72, 4-(3-((((1R,3R)-3-aminocyclohexyl)methyl)amino)-1-(2-isopropyl-2H-indazol-5-yl)-1H-pyrazol-5-yl)-2-fluorobenzonitrile]		
	6.00 to 6.30	> 6.30	> 6.30		Cn1cc2ccc(-n3nc(NC[C@H]4CCC[C@H](N)C4)cc3-c3ccc(C#N)c(F)c3)cc2n1 [Example 67, 4-(3-((((1S,3S)-3-aminocyclohexyl)methyl)amino)-1-(2-methyl-2H-indazol-6-yl)-1H-pyrazol-5-yl)-2-fluorobenzonitrile]		
	> 6.30	6.00 to 6.30	> 6.30		N#Cc1ccc(-c2cc(NC[C@@H]3CCC[C@@H](N)C3)nn2-c2ccc3c(cnn3-c3ccncc3)c2)cc1F [Example 76, 4-(3-((((1R,3R)-3-aminocyclohexyl)methyl)amino)-1-(1-(pyridin-4-yl)-1H-indazol-5-yl)-1H-pyrazol-5-yl)-2-fluorobenzonitrile]		
	5.00 to 6.00		< 5.00		COc1ccc(-n2nc(N3CCCC4CCCCC43)cc2-c2ccc(C#N)c(F)c2)cc1 (stereo not drawn) [Example 82, 2-fluoro-4-(1-(4-methoxyphenyl)-3-(octahydroquinolin-1(2H)-yl)-1H-pyrazol-5-yl)benzonitrile]		

Compound	pIC50 (MV4;11 cells; [1])	pIC50 (LSD1)	pIC50 (MV4;11 cells; [2])	pIC50 (MV4;11 cells; [3])	pIC50 (MV4;11 cells; Day 10, read-out: Cell Titer-Glo IC50 (10 d))	pIC50 (MV4;11 cells; Homo sapiens, 120 h, Day 5, read-out: Cell Titer-Glo IC50 (5 d))	pIC50 (MV4;11 cells; Homo sapiens, 240 h, Day 10, read-out: Cell Titer-Glo IC50 (10 d))
Cn1ncc2cc(-n3nc(NC[C@H]4CN5CCC4CC5)cc3-c3ccc(C#N)c(F)c3)ccc21 (single isomer, unassigned) [Example 31b]		> 6.30				6.00 to 6.30	> 6.30
